Several values for one entry are separate records, joined by “and”; a condition that tells them apart may be missing. Identical values can stand only once.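 Step 1: Grow cells in 96-well plates. Step 2: Expose to compound for 48 hours at 5 concentrations. Step 3: Interpolate endpoints linearly; if unreached, use highest concentration. The concentration for 50% growth inhibition is given as GI50. Definition used: TGI = concentration required for complete inhibition of growth.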
Columns and labels:
Test in all cases: NCI anticancer screen, dose series, 48 h
[1] = tested on: A549 NSCLC
[2] = tested on: HCT-15 colon
[3] = tested on: NCI-H226 lung
[4] = tested on: HCT-116 colon
[5] = tested on: SNB-75 CNS
[6] = tested on: ACHN renal
[7] = tested on: SK-OV-3 ovarian
[8] = tested on: HOP-62 NSCLC
[9] = tested on: OVCAR-5 ovarian
[10] = tested on: SF-295 CNS

Row | SMILES | GI50 [1] [nM] | TGI [1] | GI50 [2] [nM] | TGI [2] | GI50 [3] [µM] | TGI [3] [µM] | GI50 [4] [nM] | TGI [4] | GI50 [5] [nM] | TGI [5] | GI50 [6] [nM] | TGI [6] | GI50 [7] [µM] | TGI [7] | GI50 [8] [nM] | TGI [8] | GI50 [9] [nM] | TGI [9] [µM] | GI50 [10] [nM] | TGI [10] [µM]
1 | O=[N+]([O-])/C(=C/C=C/c1ccccc1)c1ccccc1 | 2410 | 6.79 µM | 1860 | 4.22 µM | 6.07 | 12.4 | 1880 | 3.62 µM | 2220 | 7.27 µM | 2140 | 5 µM | 12 | 24.4 µM | 7290 | 21.4 µM | 2380 | 6.06 | 2560 | 9.08
2 | COc1cc(COC(=O)N(C)[C@@H](Cc2ccccc2)C(=O)O)c([N+](=O)[O-])cc1OC |  | > 100 µM |  | > 100 µM |  | > 100 |  | > 100 µM |  | > 100 µM |  | > 100 µM |  | > 100 µM |  | > 100 µM |  | > 100 |  | > 100
3 | COc1cc2c(c(OC)c1OC)-c1ccc(SC)c(=O)cc1C(CC(=O)Oc1ccccc1F)C2 (stereo not given) |  | > 7.5 µM |  | 0.248 µM |  | 0.444 |  | 0.0644 µM |  | > 7.5 µM |  | > 7.5 µM |  | > 7.5 µM |  | > 7.5 µM |  | > 7.5 |  | > 7.5
4 | c1ccc2[nH]c(-c3cscn3)nc2c1 |  | > 100 µM |  | > 100 µM |  | > 100 |  | > 100 µM |  | > 100 µM |  | > 100 µM |  | > 100 µM |  | > 100 µM and 19.6 µM |  | > 100 |  | > 100
5 | CN1CCC(C(=O)Nc2n[nH]c3nnc(-c4ccccc4)cc23)CC1 | > 25000 | > 25 µM | > 25000 | > 25 µM | > 22.3 | > 25 | > 23600 | > 25 µM | > 5220 | > 25 µM | > 25000 | > 25 µM | 16.6 | > 25 µM | > 25000 | > 25 µM | > 25000 | > 25 | 17500 | > 25
6 | Cc1nc2sc(C(=O)Nc3cccc(Cl)c3)c(N)c2cc1C(O)c1ccccc1 (stereo not given) | 1590 | 38.8 µM | 384 | 46.8 µM | 3.53 | 26.6 | 426 | > 100 µM | 243 | 12.3 µM | 884 | 13.4 µM | 1.22 | 16.1 µM | 1450 | 25.5 µM | 2410 | 18.1 | 1210 | 13.5
7 | Cc1cn([C@H]2CN(O)C[C@@H](CO)O2)c(=O)[nH]c1=O |  | > 100 µM |  | > 100 µM |  | > 100 |  | > 100 µM |  | > 100 µM |  | > 100 µM |  | > 100 µM |  | > 100 µM |  | > 100 |  | > 100
8 | CCCC/C=C1/CCC(CN(C)C)C1=O (stereo not given) |  | 16.5 µM |  | 1.08 µM |  | 22.8 |  | 4.01 µM |  | 6.99 µM |  | 4.6 µM |  | 25.1 µM |  | 35.2 µM | 97.1 | 12.3 |  | 13
9 | Cc1cc(N(CCC#N)CCC#N)ccc1/C=C1N=C(/C=C\c2ccccc2)N(c2ccc(C(=O)O)cc2)C\1=O |  | > 100 µM |  | > 100 µM |  | > 100 |  | > 100 µM |  | > 100 µM |  | > 100 µM |  | > 100 µM |  | > 100 µM |  | > 100 |  | > 100
10 | O=c1ccc(=O)c2c1c1[nH]c3ccccc3c1c1c(=O)c3ccccc3c(=O)c21 |  | > 10 µM |  | > 10 µM |  | > 10 |  | > 10 µM |  | > 10 µM |  | > 10 µM |  | > 10 µM |  | > 10 µM |  | > 10 |  | > 10
11 | COc1ccc([C@H]2c3[nH]c4ccccc4c3C[C@H]3C(=O)N(CCCCCCC(=O)NO)CC(=O)N23)cc1 | 5280 | > 33.3 µM | 9050 | > 33.3 µM | 6.26 | > 33.3 | 1070 | > 33.3 µM | 1120 | > 33.3 µM | 1920 | 12.8 µM | 3.02 | > 33.3 µM | 2450 | > 33.3 µM | 1490 | > 33.3 | 1910 | 12.4
12 | CC(=O)O[C@H]1C(=O)[C@@]2(C)C([C@H](OC(=O)c3ccccc3)[C@]3(O)C[C@H](OC(=O)[C@H](O)[C@@H](NC(=O)c4ccc(Cl)cc4)c4ccccc4)C(C)=C1C3(C)C)C1(OC(C)=O)CO[C@@H]1C[C@@H]2O (stereo not given in full) | 21.9 | 25 µM and > 100 µM | 200 | 25 µM and 4.92 µM |  | 25 |  | 3.31 µM and 1.85 µM |  | 0.603 µM and 0.178 µM | 10300 | 25 µM and > 100 µM |  | 13.7 µM and 36.7 µM | 261 | 25 µM and 25.2 µM |  | 25 | 177 | 

Reference: PubChem BioAssay (NCI)
